Measurements published in patent publication US8470829B2 (priority 2004, dated 2013).
Read-outs that look alike come from different tables or passages of the source. Values belong to the compound of their own block, whether it stands above or below them.

Assays:
human androgen receptor [1] = molecular target: T1, human androgen receptor (Homo sapiens, UniProt P10275); assay: Measurement of agonist effect on androgen receptor (reporter gene assay, 11A11B2 cells); format: cell-based; details: compound concentration showing a transcription activity of 5% (0.1 nmol/L DHT = 100%, assay medium alone = 0%), 48 hours
T1 construct: expressed in transfected cells
T1 sequence (P10275 1-920): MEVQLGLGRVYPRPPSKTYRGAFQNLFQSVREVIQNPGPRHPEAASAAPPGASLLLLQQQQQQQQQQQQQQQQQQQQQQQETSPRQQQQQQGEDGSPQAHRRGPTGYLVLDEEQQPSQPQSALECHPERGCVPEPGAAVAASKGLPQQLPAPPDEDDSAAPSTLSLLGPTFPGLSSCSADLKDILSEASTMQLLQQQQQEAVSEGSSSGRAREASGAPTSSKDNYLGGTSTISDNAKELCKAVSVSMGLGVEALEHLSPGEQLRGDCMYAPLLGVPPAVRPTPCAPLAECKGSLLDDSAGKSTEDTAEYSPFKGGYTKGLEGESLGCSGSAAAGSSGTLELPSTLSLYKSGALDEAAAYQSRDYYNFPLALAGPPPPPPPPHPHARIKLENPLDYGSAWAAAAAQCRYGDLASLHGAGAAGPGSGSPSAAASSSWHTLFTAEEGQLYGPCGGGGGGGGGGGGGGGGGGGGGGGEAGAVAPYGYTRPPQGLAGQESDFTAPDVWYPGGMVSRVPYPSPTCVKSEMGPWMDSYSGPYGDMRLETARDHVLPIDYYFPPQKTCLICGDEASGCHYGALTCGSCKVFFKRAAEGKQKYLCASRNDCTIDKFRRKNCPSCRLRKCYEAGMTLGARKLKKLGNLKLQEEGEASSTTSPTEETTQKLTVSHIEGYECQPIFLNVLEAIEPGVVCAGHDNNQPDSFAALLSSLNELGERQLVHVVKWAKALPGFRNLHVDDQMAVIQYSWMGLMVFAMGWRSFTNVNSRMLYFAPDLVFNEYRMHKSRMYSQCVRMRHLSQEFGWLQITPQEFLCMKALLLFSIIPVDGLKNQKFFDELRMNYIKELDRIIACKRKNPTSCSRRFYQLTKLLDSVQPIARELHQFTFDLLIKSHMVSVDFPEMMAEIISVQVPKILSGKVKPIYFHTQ

androgen receptor = androgen receptor (Homo sapiens, UniProt P10275); details: at a concentration of 10 μmol/L; cited from earlier work
[2] = prostate cancer patients treated with flutamide; cited from earlier work
human androgen receptor [3] = molecular target: T1, human androgen receptor; assay: Investigation of antagonist effect on androgen receptor (reporter gene assay, 11A11B2 cells, with DHT); format: cell-based
castrated rats = details: continuously administered to castrated rats for two weeks; cited from earlier work
[4] = with 0.1 nmol/L DHT, transcription activity rate of Test Example 1 subtracted, 11A11B2 cells, 48 hours, read-out: IC50

- EC5 (human androgen receptor [1]): 0.01 µM
SMILES: CC(C)(O)C(=O)Nc1ccc([N+](=O)[O-])c(C(F)(F)F)c1 [Comparative Example 4, hydroxyflutamide]
- androgen receptor transcription activity (androgen receptor): increase
- concentration in the blood [2]: several

SMILES: CCOC(=O)Nc1cc(N2C(=O)N(c3ccc(C#N)c(C(F)(F)F)c3)C(=O)C2(C)C)ccc1Cl [Example 13, {2-chloro-5-[3-(4-cyano-3-trifluoromethylphenyl)-5,5-dimethyl-2,4-dioxoimidazolidin-1-yl]phenyl}carbamic acid ethyl ester]
- EC5 (human androgen receptor [1]): >10 µM
- IC50 (human androgen receptor [3]; [4]): 200 nM
- melting point: 155 to 157 °C

SMILES: CC(=O)O[C@]1(C(C)=O)CC[C@H]2[C@@H]3C=C(Cl)C4=CC(=O)CC[C@]4(C)[C@H]3CC[C@@]21C [chlormadinone acetate]
- weight of the prostate gland (castrated rats): increase

SMILES: CC1(C)C(=O)N(c2ccc(C#N)c(Cl)c2)C(=S)N1c1ccc(Cl)c(NC(=O)OCC(O)CO)c1 (stereo not shown) [Example 50, {2-chloro-5-[3-(4-cyano-3-chlorophenyl)-5,5-dimethyl-4-oxo-2-thioxoimidazolidin-1-yl]phenyl}-carbamic acid 2,3-dihydroxypropyl ester]
- EC5 (human androgen receptor [1]): >10 µM
- IC50 (human androgen receptor [3]): 300 nM

SMILES: CC1(C)C(=O)N(c2ccc(C#N)c(Cl)c2)C(=S)N1c1ccc(Cl)c(NC(=O)OCCO)c1 [Example 47, {2-chloro-5-[3-(4-cyano-3-chlorophenyl)-5,5-dimethyl-4-oxo-2-thioxoimidazolidin-1-yl]phenyl}carbamic acid 2-hydroxyethyl ester]
- EC5 (human androgen receptor [1]): >10 µM
- IC50 (human androgen receptor [3]): 300 nM

SMILES: CN(C)CCOC(=O)N1CCC(N2C(=S)N(c3ccc(C#N)c(C(F)(F)F)c3)C(=O)C2(C)C)CC1 [Example 36]
- EC5 (human androgen receptor [1]): >10 µM
- IC50 (human androgen receptor [3]): 500 nM

SMILES: CCS(=O)(=O)N1CCC(N2C(=O)N(c3ccc(C#N)c(C(F)(F)F)c3C)C(=O)C2(C)C)CC1 [Example 10, 4-[3-(1-ethanesulfonylpiperidin-4-yl)-4,4-dimethyl-2,5-dioxoimidazolidin-1-yl]-2-trifluoromethyl-3-methylbenzonitrile]
- EC5 (human androgen receptor [1]): >10 µM
- IC50 (human androgen receptor [3]; [4]): 600 nM

SMILES: CN(C)CCOC(=O)Nc1ccc(N2C(=S)N(c3ccc(C#N)c(C(F)(F)F)c3)C(=O)C2(C)C)cn1 [Example 58, {5-[3-(4-cyano-3-trifluoromethylphenyl)-5,5-dimethyl-4-oxo-2-thioxoimidazolidin-1-yl]pyridin-2-yl}carbamic acid 2-dimethylaminoethyl ester]
- EC5 (human androgen receptor [1]): >10 µM
- IC50 (human androgen receptor [3]): 500 nM

SMILES: CC(=O)O[C@]1(C(C)=O)CC[C@H]2[C@@H]3C=C(Cl)C4=CC(=O)[C@@H]5C[C@@H]5[C@]4(C)[C@H]3CC[C@@]21C [cyproterone acetate]
- weight of the prostate gland (castrated rats): increase

SMILES: COC(=O)Nc1cc(N2C(=O)N(c3ccc(C#N)c(OC)c3)C(=O)C2(C)C)ccc1F [Example 30]
- EC5 (human androgen receptor [1]): >10 µM
- IC50 (human androgen receptor [3]; [4]): 500 nM

SMILES: CCOC(=O)N1CCC(N2C(=S)N(c3ccc(C#N)c(Cl)c3)C(=O)C2(C)C)CC1 [Example 2, 4-[3-(1-ethoxycarbonylpiperidin-4-yl)-4,4-dimethyl-5-oxo-2-thioxoimidazolidin-1-yl]-2-chlorobenzonitrile]
- EC5 (human androgen receptor [1]): 8 µM
- IC50 (human androgen receptor [3]): 80 nM
